Data from ChEMBL document CHEMBL1201862, “PubChem BioAssay data set” (2004).
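The compound was tested at five concentrations on cells cultured in 96-well plates, with a 48-hour exposure period. At the GI50, growth is halved.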 Active and inactive are the calls of the source. Rule as the data show it: active = GI50 up to about 1.1 µM and inactive = higher.

What was measured:
Assay in all cases: NCI-60 cell line screen, 48 h
LOX IMVI = tested on: LOX IMVI
SNB-19 = tested on: SNB-19
MDA-MB-231 = tested on: MDA-MB-231
A498 = tested on: A498
SN12C = tested on: SN12C
786-0 = tested on: 786-0
CAKI-1 = tested on: CAKI-1
MDA-MB-435 = tested on: MDA-MB-435
UACC-62 = tested on: UACC-62
T47D = tested on: T47D
HOP-62 = tested on: HOP-62
HOP-92 = tested on: HOP-92
IGROV-1 = tested on: IGROV-1
SW-620 = tested on: SW-620
SF-539 = tested on: SF-539
NCI-H226 = tested on: NCI-H226
Malme-3M = tested on: Malme-3M
Hs-578T = tested on: Hs-578T
NCI-H460 = tested on: NCI-H460
UACC-257 = tested on: UACC-257

Compound	GI50 (LOX IMVI)	GI50 (SNB-19)	GI50 (MDA-MB-231)	GI50 (A498)	GI50 (SN12C)	GI50 (786-0)	GI50 (CAKI-1)	GI50 (MDA-MB-435)	GI50 (UACC-62)	GI50 (T47D)	GI50 (HOP-62)	GI50 (HOP-92)	GI50 (IGROV-1)	GI50 (SW-620)	GI50 (SF-539)	GI50 (NCI-H226)	GI50 (Malme-3M)	GI50 (Hs-578T)	GI50 (NCI-H460)	GI50 (UACC-257)
COC(=O)C[C@](O)(CCCC(C)(C)O)C(=O)O[C@@H]1C(OC)=C[C@]23CCCN2CCc2cc4c(cc2[C@H]13)OCO4 [OMACETAXINE MEPESUCCINATE]	0.0444 µM (active)	0.0706 µM (active)	1.7 µM (inactive)	0.0395 µM (active)	0.121 µM (active)	0.893 µM (active)	0.203 µM (active)	4.46 µM (inactive)	0.113 µM (active)	0.383 µM (active)	0.0597 µM (active)	0.0869 µM (active)	0.129 µM (active)	0.0682 µM (active)	0.056 µM (active)	0.09 µM (active)	0.0568 µM (active)	1.07 µM (active)		
COC(=O)Nc1nc2cc(NC(=O)c3cccs3)ccc2[nH]1	25.9 µM (inactive)	32.1 µM (inactive)	62.1 µM (inactive)	11.2 µM (inactive)	57.1 µM (inactive)	50.9 µM (inactive)	44.9 µM (inactive)	8.57 µM (inactive)	52.2 µM (inactive)	31.3 µM (inactive)	84.9 µM (inactive)	1.53 µM (inactive)	0.296 µM (active)	27.5 µM (inactive)	21.9 µM (inactive)	> 100 µM (inactive)	23.4 µM (inactive)	15.1 µM (inactive)	40 µM (inactive)	
O=c1ccn(C2OC(CN(O)CCC3C(O)C(CO)OC3n3ccc(=O)[nH]c3=O)C(O)C2O)c(=O)[nH]1 (centres undefined)	> 100 µM (inactive)	> 100 µM (inactive)	> 100 µM (inactive)	> 100 µM (inactive)	> 100 µM (inactive)	> 100 µM (inactive)	> 100 µM (inactive)	> 100 µM (inactive)		> 100 µM (inactive)	> 100 µM (inactive)	> 100 µM (inactive)	> 100 µM (inactive)			> 100 µM (inactive)	> 100 µM (inactive)	> 100 µM (inactive)	> 100 µM (inactive)	
CCC(=O)N(c1ccccc1)C(C)CN1CCC(O)(c2cccc(C(F)(F)F)c2)CC1 (centres undefined)	18.9 µM (inactive)	> 100 µM (inactive)	21.6 µM (inactive)	26.8 µM (inactive)	37.9 µM (inactive)	18.5 µM (inactive)	> 100 µM (inactive)	20.2 µM (inactive)	22.1 µM (inactive)	33.7 µM (inactive)	21.5 µM (inactive)	22.8 µM (inactive)	59.2 µM (inactive)	> 100 µM (inactive)	23.2 µM (inactive)	30.2 µM (inactive)		34.8 µM (inactive)		17.5 µM (inactive)
Cc1cc(C)nc(NC(=S)Nc2ccc([N+](=O)[O-])cc2)c1	> 100 µM (inactive)	> 100 µM (inactive)	> 100 µM (inactive)	> 100 µM (inactive)		> 100 µM (inactive)	> 100 µM (inactive)	> 100 µM (inactive)	> 100 µM (inactive)	> 100 µM (inactive)	> 100 µM (inactive)	> 100 µM (inactive)	> 100 µM (inactive)	> 100 µM (inactive)	> 100 µM (inactive)	> 100 µM (inactive)		> 100 µM (inactive)	> 100 µM (inactive)	> 100 µM (inactive)
[N-]=[N+]=Nc1ccccc1-c1ccccc1[N+](=O)[O-]	48.6 µM (inactive)	> 100 µM (inactive)	50.2 µM (inactive)	45 µM (inactive)	97.9 µM (inactive)	88.1 µM (inactive)	> 100 µM (inactive)	32.3 µM (inactive)	74.3 µM (inactive)	38.4 µM (inactive)	87.9 µM (inactive)	72.1 µM (inactive)	> 100 µM (inactive)	48.5 µM (inactive)			26.4 µM (inactive)	30.5 µM (inactive)	26.9 µM (inactive)	25.4 µM (inactive)
O=S1(=O)OCc2ccccc21		> 100 µM (inactive)	20.8 µM (inactive)	37.5 µM (inactive)	> 100 µM (inactive)	60.1 µM (inactive)		58.1 µM (inactive)	80.2 µM (inactive)	> 100 µM (inactive)	10.2 µM (inactive)	> 100 µM (inactive)	> 100 µM (inactive)	85.7 µM (inactive)	25.2 µM (inactive)	97.5 µM (inactive)	> 100 µM (inactive)	> 100 µM (inactive)	34.4 µM (inactive)	> 100 µM (inactive)
COC(=O)C1=CO[C@@H](OC2OC(CO)C(O)C(O)C2O)[C@H]2[C@@H](C)[C@@H](O)[C@@H](O)[C@@H]12 (some centres undefined)	> 100 µM (inactive)		> 100 µM (inactive)	> 100 µM (inactive)	> 100 µM (inactive)	> 100 µM (inactive)	> 100 µM (inactive)	> 100 µM (inactive)	> 100 µM (inactive)	> 100 µM (inactive)	> 100 µM (inactive)	> 100 µM (inactive)	> 100 µM (inactive)	> 100 µM (inactive)	> 100 µM (inactive)	> 100 µM (inactive)	> 100 µM (inactive)	> 100 µM (inactive)		> 100 µM (inactive)
CC(C)(C)OC(=O)NCC(=O)N1CCCN(C(=O)CNC(=O)OC(C)(C)C)CC1	> 100 µM (inactive)	> 100 µM (inactive)	> 100 µM (inactive)	> 100 µM (inactive)	> 100 µM (inactive)	> 100 µM (inactive)	> 100 µM (inactive)	> 100 µM (inactive)	> 100 µM (inactive)	> 100 µM (inactive)	> 100 µM (inactive)	> 100 µM (inactive)	> 100 µM (inactive)	> 100 µM (inactive)		> 100 µM (inactive)	> 100 µM (inactive)	> 100 µM (inactive)	> 100 µM (inactive)	> 100 µM (inactive)
Oc1ccc(Cl)cc1C1=Nn2c(COc3ccc4c(c3)CCCC4)nnc2SC1	14 µM (inactive)	20.7 µM (inactive)	14.8 µM (inactive)	1.49 µM (inactive)	6.28 µM (inactive)		19.4 µM (inactive)	17 µM (inactive)	12.4 µM (inactive)	11.2 µM (inactive)	13.2 µM (inactive)	3.04 µM (inactive)	11.6 µM (inactive)	16.8 µM (inactive)	16.7 µM (inactive)		> 100 µM (inactive)	14.3 µM (inactive)	14 µM (inactive)	16.3 µM (inactive)
O=C1CSC(c2ccc([N+](=O)[O-])cc2)N1c1ccc(-n2c(-c3ccccc3)nc3ccccc3c2=O)cc1 (centres undefined)	> 100 µM (inactive)	> 100 µM (inactive)	70.3 µM (inactive)	> 100 µM (inactive)	> 100 µM (inactive)	> 100 µM (inactive)	64.6 µM (inactive)	> 100 µM (inactive)	7.98 µM (inactive)	22.5 µM (inactive)	> 100 µM (inactive)		> 100 µM (inactive)	> 100 µM (inactive)	42.9 µM (inactive)	2.96 µM (inactive)	> 100 µM (inactive)	> 100 µM (inactive)	> 100 µM (inactive)	> 100 µM (inactive)
Cc1ccc(S(=O)(=O)C2=C(C(C)C)N=NC2(C)C)cc1	88.9 µM (inactive)	> 100 µM (inactive)	> 100 µM (inactive)	> 100 µM (inactive)	> 100 µM (inactive)	> 100 µM (inactive)	26.7 µM (inactive)	47.6 µM (inactive)		60.1 µM (inactive)	> 100 µM (inactive)	14.3 µM (inactive)	91.4 µM (inactive)	> 100 µM (inactive)	> 100 µM (inactive)	61.8 µM (inactive)		57.5 µM (inactive)	> 100 µM (inactive)	> 100 µM (inactive)
[N-]=[N+]=NC1(c2ccccc2)C(=O)Nc2ccccc2C1=O (centres undefined)	37.5 µM (inactive)	38 µM (inactive)	55.2 µM (inactive)	0.706 µM (active)	48.8 µM (inactive)	68.2 µM (inactive)	32.2 µM (inactive)	11.3 µM (inactive)	19.1 µM (inactive)	95.5 µM (inactive)	41.8 µM (inactive)	26.1 µM (inactive)	37.1 µM (inactive)	26.4 µM (inactive)	36.8 µM (inactive)		40.7 µM (inactive)	22.3 µM (inactive)	37.5 µM (inactive)	78.2 µM (inactive)
CC(C)(C)n1c(=O)n2c(-c3ccccc3)c(-c3ccccc3)n2c1=O	68.4 µM (inactive)	> 100 µM (inactive)	> 100 µM (inactive)	> 100 µM (inactive)	> 100 µM (inactive)	57.5 µM (inactive)	> 100 µM (inactive)	> 100 µM (inactive)	> 100 µM (inactive)	> 100 µM (inactive)		> 100 µM (inactive)	> 100 µM (inactive)	> 100 µM (inactive)	36.8 µM (inactive)	> 100 µM (inactive)	> 100 µM (inactive)	> 100 µM (inactive)	> 100 µM (inactive)	> 100 µM (inactive)
O=[N+]([O-])C(C=C(n1nnc2ccccc21)n1nnc2ccccc21)=C(n1nnc2ccccc21)n1nnc2ccccc21	> 100 µM (inactive)	0.975 µM (active)	> 100 µM (inactive)	> 100 µM (inactive)	> 100 µM (inactive)	> 100 µM (inactive)	> 100 µM (inactive)	> 100 µM (inactive)	> 100 µM (inactive)	> 100 µM (inactive)	> 100 µM (inactive)	84.1 µM (inactive)	> 100 µM (inactive)	> 100 µM (inactive)	> 100 µM (inactive)	> 100 µM (inactive)	> 100 µM (inactive)	58.5 µM (inactive)	> 100 µM (inactive)	
